Measurements from patent publication US20240254129A1, “HETEROCYCLIC COMPOUNDS AND USES THEREOF” (Kumquat Biosciences Inc., priority 2021, published 2024).

Tests used:
[1] = biological target: T1, wildtype Kras / hSOS1 (Homo sapiens, UniProt P01116); test: HTRF assay, wildtype Kras / SOS1 interaction; type: binding; settings: compound nos. 401-703; read-out: IC50 against wildtype Kras
T1 construct: made in house; host or cells: E. coli BL21 (DE3)
In short: (§1)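 Tagged proteins: GST-K-Ras (wt or mutant), His-hSOS1; labels anti-GST-Eu/anti-6His-XL665; HEPES pH 7.4 buffer with DTT, BSA, Igepal. Read ≥10 min post-mix at ex 337 nm; IC50 from ratiometric data, duplicates.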

[2] = biological target: GST-tagged K-Ras mutant / His-tagged hSOS1 (Homo sapiens, UniProt P01116); test: HTRF assay, K-Ras mutant / SOS1 interaction; type: binding; settings: compound nos. 401-703; read-out: IC50 against mutant Kras
GST-tagged K-Ras mutant / His-tagged hSOS1, sequence (P01116 whole entry G12D, form open): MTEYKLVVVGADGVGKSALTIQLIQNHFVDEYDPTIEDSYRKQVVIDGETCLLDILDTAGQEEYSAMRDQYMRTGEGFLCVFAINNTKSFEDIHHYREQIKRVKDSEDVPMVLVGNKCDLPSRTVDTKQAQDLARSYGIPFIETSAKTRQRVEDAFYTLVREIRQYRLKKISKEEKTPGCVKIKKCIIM
In short: as §1

T1 sequence (P01116 1-188 isoform P01116-2): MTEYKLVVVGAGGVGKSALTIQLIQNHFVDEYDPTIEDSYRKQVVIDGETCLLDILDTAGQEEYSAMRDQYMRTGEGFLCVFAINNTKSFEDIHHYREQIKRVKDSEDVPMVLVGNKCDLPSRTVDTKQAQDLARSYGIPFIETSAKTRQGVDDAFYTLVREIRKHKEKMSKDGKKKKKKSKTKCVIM

| SMILES | IC50 [1] [nM] | IC50 [2] [nM] |
| --- | --- | --- |
| OC1Cc2ccccc2N(c2ccc3c(N4CCCCCC4)nc(OCC45CCCN4CCC5)nc3c2F)C1 (stereo not shown) [Compound 534, 1-(4-(azepan-1-yl)-8-fluoro-2-((tetrahydro-1H-pyrrol-izin-7a(5H)-yl)methoxy)-quinazolin-7-yl)-1,2,3,4-tetrahydroquinolin-3-ol] | > 500 | > 500 |
| CN1CCC[C@H]1COc1nc(N2CCCC(C(=O)O)CC2)c2cc(Cl)c(-c3cccc4sc(N)nc34)c(F)c2n1 (stereo partly drawn) [Compound 535, 1-(7-(2-aminobenzo[d]thia-zol-4-yl)-6-chloro-8-fluoro-2-(((S)-1-methylpyrrolidin-2-yl)methoxy)quinazolin-4-yl)azepane-4-carboxylic acid] | > 500 | < 500 |
| Fc1c(Br)ccc2c(N3CC4CCC(C3)N4)nc(OC[C@@]34CCCN3C[C@H](F)C4)nc12 [Compound 537, 4-(3,8-diazabicyclo[3.2.1]-octan-3-yl)-7-bromo-8-fluoro-2-(((2R,7aS)-2-fluorotetrahydro-1H-pyrrol-izin-7a(5H)-yl)methoxy)-quinazoline] | > 500 | > 500 |
| OC1Cc2ccccc2N(c2ccc3c(N4CC5CCC(C4)N5)nc(OCC45CCCN4CCC5)nc3c2F)C1 (stereo not shown) [Compound 538, 1-(4-(3,8-diazabicyclo-[3.2.1]octan-3-yl)-8-fluoro-2-((tetrahydro-1H-pyrrol-izin-7a(5H)-yl)methoxy)-quinazolin-7-yl)-1,2,3,4-tetrahydro-quinolin-3-ol] | > 500 | > 500 |
| Fc1c(-c2cccc3ncccc23)c(Cl)cc2c(N3CCCCCC3)nc(OCC34CCCN3CCC4)nc12 [Compound 540, 4-(azepan-1-yl)-6-chloro-8-fluoro-7-(quinolin-5-yl)-2-((tetrahydro-1H-pyrrolizin-7a(5H)-yl)methoxy)quin-azoline] | > 500 | > 500 |
| Nc1nccc2c(-c3c(Cl)cc4c(N5CC6CCC(C5)N6)nc(OCC56CCCN5CCC6)nc4c3F)cccc12 [Compound 541, 5-(4-(3,8-diazabicyclo-[3.2.1]octan-3-yl)-6-chloro-8-fluoro-2-((tetrahydro-1H-pyrrolizin-7a(5H)-yl)meth-oxy)quinazolin-7-yl)iso-quinolin-1-amine] | > 500 | > 500 |
| Nc1nc2c(-c3c(Cl)cc4c(N5CC6CCC(C5)N6)nc(OCC56CCCN5CCC6)nc4c3F)cc(F)cc2s1 [Compound 542, 4-(4-(3,8-diazabicyclo-[3.2.1]octan-3-yl)-6-chloro-8-fluoro-2-((tetrahydro-1H-pyrrolizin-7a(5H)-yl)meth-oxy)quinazolin-7-yl)-6-fluorobenzo[d]thiazol-2-amine] | > 500 | < 500 |
| Nc1nc2c(-c3c(Cl)cc4c(N5CCCCC(N)C5)nc(OC[C@@]56CCCN5C[C@H](F)C6)nc4c3F)ccc(F)c2s1 (stereo partly drawn) [Compound 543, 4-(4-(3-aminoazepan-1-yl)-6-chloro-8-fluoro-2-(((2R,7aS)-2-fluorotetra-hydro-1H-pyrrolizin-7a(5H)-yl)methoxy)quinazolin-7-yl)-7-fluorobenzo[d]thiazol-2-amine] | > 500 | < 500 |
| COc1nc2c(N3CC4CCC(C3)N4)nc(OCC34CCCN3CCC4)nc2cc1-c1cccc2cccc(Cl)c12 [Compound 544, 4-(3,8-diazabicyclo[3.2.1]-octan-3-yl)-7-(8-chloronaph-thalen-1-yl)-6-methoxy-2-((tetrahydro-1H-pyrrolizin-7a(5H)-yl)methoxy)pyrido-[3,2-d]pyrimidine] | > 500 | > 500 |
| COc1nc2c(N3C[C@H]4CC[C@@H](C3)N4)nc(OCC34CCCN3CCC4)nc2cc1-c1cc(O)cc2ccccc12 [Compound 545, 4-(4-((1R,5S)-3,8-diazabicyclo[3.2.1]octan-3-yl)-6-methoxy-2-((tetrahydro-1H-pyrrolizin-7a(5H)-yl)methoxy)pyrido[3,2-d]pyrimidin-7-yl)naphthalen-2-ol] | > 500 | > 500 |
| Cc1ccc2oc(N)nc2c1-c1c(Cl)cc2c(N3CC4CCC(C3)N4)nc(OC[C@@]34CCCN3C[C@H](F)C4)nc2c1F [Compound 546, 4-(4-(3,8-diazabicyclo-[3.2.1]octan-3-yl)-6-chloro-8-fluoro-2-(((2R,7aS)-2-fluorotetrahydro-1H-pyrrol-izin-7a(5H)-yl)methoxy)-quinazolin-7-yl)-5-methyl-benzo[d]oxazol-2-amine] | > 500 | < 500 |
| Nc1nc2c(-c3c(Cl)cc4c(N5CC6COCC(C5)N6)nc(OC[C@@]56CCCN5C[C@H](F)C6)nc4c3F)ccc(F)c2s1 [Compound 547, 4-(4-(3-oxa-7,9-diaza-bicyclo[3.3.1]nonan-7-yl)-6-chloro-8-fluoro-2-(((2R,7aS)-2-fluorotetra-hydro-1H-pyrrolizin-7a(5H)-yl)methoxy)quinazolin-7-yl)-7-fluorobenzo[d]thiazol-2-amine] | > 500 | < 500 |
| Fc1c(N2CCCCc3ccccc32)ccc2c(N3CCCCCC3)nc(OCC34CCCN3CCC4)nc12 [Compound 548, 1-(4-(azepan-1-yl)-8-fluoro-2-((tetrahydro-1H-pyrrol-izin-7a(5H)-yl)methoxy)-quinazolin-7-yl)-2,3,4,5-tetrahydro-1H-benzo[b]-azepine] | > 500 | > 500 |
| Cc1ccc2cnn(CC#N)c2c1-c1c(Cl)cc2c(N3CC4CCC(C3)N4)nc(OC[C@@]34CCCN3C[C@H](F)C4)nc2c1F [Compound 549, 2-(7-(4-(3,8-diazabicyclo-[3.2.1]octan-3-yl)-6-chloro-8-fluoro-2-(((2R,7aS)-2-fluorotetrahydro-1H-pyrrol-izin-7a(5H)-yl)methoxy)-quinazolin-7-yl)-6-methyl-1H-indazol-1-yl)acetonitrile] | > 500 | > 500 |
| CC1CCCCN(c2nc(OC[C@@H]3CCCN3C)nc3c(F)c(-c4cccc5sc(N)nc45)c(Cl)cc23)C1 (stereo partly drawn) [Compound 550, 4-(6-chloro-8-fluoro-4-(3-methylazepan-1-yl)-2-(((S)-1-methylpyrrolidin-2-yl)-methoxy)quinazolin-7-yl)-benzo[d]thiazol-2-amine] | > 500 | < 500 |
| N#CN1CCN(c2nc(OCC34CCCN3CCC4)nc3c(F)c(-c4ccc(F)c5sc(N)nc45)c(Cl)cc23)CC(F)(F)C1 [Compound 551, 4-(7-(2-amino-7-fluorobenzo[d]thiazol-4-yl)-6-chloro-8-fluoro-2-((tetrahydro-1H-pyrrolizin-7a(5H)-yl)methoxy)quinazolin-4-yl)-6,6-difluoro-1,4-diazepane-1-carbonitrile] | > 500 | < 500 |

Now from value to compound:

| IC50 [1] [nM] | IC50 [2] [nM] | SMILES |
| --- | --- | --- |
| > 500 | < 500 | N#Cc1c(N)sc2c(F)ccc(-c3c(Cl)cc4c(N5CCCC6(CNC6)C5)nc(OC[C@@]56CCCN5C[C@H](F)C6)nc4c3F)c12 [Compound 526, 2-amino-4-(6-chloro-8-fluoro-2-(((2R,7aS)-2-fluorotetrahydro-1H-pyrrol-izin-7a(5H)-yl)methoxy)-4-(2,6-diazaspiro[3.5]nonan-6-yl)quinazolin-7-yl)-7-fluorobenzo[b]thiophene-3-carbonitrile] |
| > 500 | > 500 | Nc1c(-c2c(Cl)cc3c(N4CC5CCC(C4)N5)nc(OCC45CCCN4CCC5)nc3c2F)cccc1C(F)(F)F [Compound 527, 2-(4-(3,8-diazabicyclo-[3.2.1]octan-3-yl)-6-chloro-8-fluoro-2-((tetrahydro-1H-pyrrolizin-7a(5H)-yl)meth-oxy)quinazolin-7-yl)-6-(trifluoromethyl)aniline] |
| > 500 | < 500 | Nc1nc2c(-c3c(Cl)cc4c(N5C[C@H]6CCNCC[C@H]6C5)nc(OC[C@@]56CCCN5C[C@H](F)C6)nc4c3F)ccc(F)c2s1 [Compound 528, 4-(6-chloro-8-fluoro-2-(((2R,7aS)-2-fluorotetra-hydro-1H-pyrrolizin-7a(5H)-yl)methoxy)-4-((3aR,8aS)-octahydropyr-rolo[3,4-d]azepin-2(1H)-yl)quinazolin-7-yl)-7-fluorobenzo[d]thiazol-2-amine] |
| > 500 | > 500 | CN1CCCC1CCn1nc(N2CC3CCC(C2)N3)c2ccc(-c3cc(O)cc4ccccc34)c(F)c2c1=O (stereo not shown) [Compound 529, 4-(3,8-diazabicyclo[3.2.1]-octan-3-yl)-8-fluoro-7-(3-hydroxynaphthalen-1-yl)-2-(2-(1-methylpyrrolidin-2-yl)ethyl)phthalazin-1(2H)-one] |
| > 500 | > 500 | N#Cc1n[nH]c2c(F)ccc(-c3c(Cl)cc4c(N5CC6CCC(C5)N6)nc(OC[C@@]56CCCN5C[C@H](F)C6)nc4c3F)c12 [Compound 531, 4-(4-(3,8-diazabicyclo-[3.2.1]octan-3-yl)-6-chloro-8-fluoro-2-(((2R,7aS)-2-fluorotetrahydro-1H-pyrrol-izin-7a(5H)-yl)methoxy)-quin-azolin-7-yl)-7-fluoro-1H-indazole-3-carbonitrile] |
| > 500 | < 500 | Nc1nc2c(-c3c(Cl)cc4c(N5CCCC6(CCNC6)C5)nc(OC[C@@]56CCCN5C[C@H](F)C6)nc4c3F)ccc(F)c2s1 (stereo partly drawn) [Compound 532, 4-(6-chloro-8-fluoro-2-(((2R,7aS)-2-fluorotetra-hydro-1H-pyrrolizin-7a(5H)-yl)methoxy)-4-(2,7-diaza-spiro[4.5]decan-7-yl)quin-azolin-7-yl)-7-fluorobenzo-[d]thiazol-2-amine] |
| > 500 | > 500 | COc1nc2c(N3CC4CCC(C3)N4)nc(OC[C@@]34CCCN3C[C@H](F)C4)nc2cc1-c1cc(O)cc2ccccc12 [Compound 533, 4-(4-(3,8-diazabicyclo-[3.2.1]octan-3-yl)-2-(((2R,7aS)-2-fluorotetra-hydro-1H-pyrrolizin-7a(5H)-yl)methoxy)-6-methoxypyrido-[3,2-d]-pyrimidin-7-yl)naphthalen-2-ol] |
